Patent publication US11639332B2, “Methods and compositions of isoindoline-1,3-dione and isoindole prodrugs useful for treating cancer, ulcerative colitis and related inflammatory diseases” (AMGEN (EUROPE) GMBH, priority 2018, dated 2023)
Several values for one entry are separate records, joined by “and”; a condition that tells them apart may be missing. Identical values can stand only once.

Test system: Trinitrobenzenesulfonic Acid (TNBS) Rat Model of Colonic Inflammation
Assay: Trinitrobenzenesulfonic acid (TNBS) rat model of colonic inflammation, oral treatment Days 1-6, evaluation Day 7
Type: in vivo, Sprague-Dawley rats
Set-up: key to Average Colonic Score: sum of adhesions, strictures, ulcers and wall thickness scores
Method: In Vivo Efficacy of PDE4 Inhibitor Prodrug in the Trinitrobenzenesulfonic Acid (TNBS) Rat Model of Colonic Inflammation
2. 1.62 g of prodrug from Example 2 (WB301), lot 2 (MW 587.12) in a clear 20 mL glass vial (orange material) which was stored at 4-8° C.
38 Sprague-Dawley rats (Harlan Sprague-Dawley, Inc. male, PO #599229, R #3450, 200-220 g) were received, individually examined and housed in nine cages of four rats each and one cage containing two rats. No clinical signs of disease or distress were observed. The rats were placed in quarantine with daily inspections. The rats were ear notched (SOP 800) for identification purposes, weighed (RESULTS), and sorted into four treatment groups of eight rats each based upon average body weight. The rats were individually examined and found to be free of any clinical signs of disease or distress. No deaths were recorded during the quarantine period. The rats were released to routine maintenance.
A 16 mg/ml TNBS solution was prepared be adding 2.729 ml picrylsulfonic acid solution (1 M, FLU KA, Cat. 92822, lot CDBB6609V) to 22.271 ml de-ionized water (dH20) and 25 ml 100% ethanol (200 proof, Sigma, Cat. E7023, lot SHBH3633V).
The rats were weighed (RESULTS), anesthetized (SOP1810) and Groups 1-4 were intra-rectally instilled with 4 ml/kg TNBS solution (64 mg/kg), the anus was pinched closed and the rat held inverted for one minute.
400 mg (-)riboflavin was dissolved in 40 ml DMSO (Sigma, Cat. D5879, lot 16K0127) by sonication in a 40° C. water bath for 20 minutes in an amber glass bottle, followed by storage at room temperature overnight to prepare a 10 mg/ml yellow solution.
135 mg NaOH (Fisher Scientific, Cat. S320, lot 066620) was dissolved in 100 ml dH2O to prepare a 1.35 mg/ml solution. 128.46 mg prednisolone 21-hemisuccinate sodium salt (Sigma, Cat. P4153, lot BCBB6136V, salt factor 1.339) was dissolved in 9.59 ml (-)riboflavin/DMSO followed by addition of 9.59 ml PEG400 (Sigma, Cat. 91893, lot BCBB7720). 28.781 aqueous NaOH was added with sonication to prepare a 2 mg/ml solution for Group 4. 44 mg WB301 was vortexed in 2.19 ml (-)riboflavin/DMSO to yield an orange solution followed by addition of 2.19 ml PEG400. 6.621 ml aqueous NaOH was added with sonication to prepare a 4 mg/ml solution for Group 1. 132 mg WB301 was vortexed in 2.19 ml (-)riboflavin/DMSO to yield an orange solution followed by addition of 2.19 ml PEG400. 6.621 ml aqueous NaOH was added with sonication to prepare a 12 mg/ml solution for Group 2. 6.6 mg apremilast was vortexed in 2.2 ml (-)riboflavin/DMSO to yield an orange solution followed by addition of 6.6 ml PEG400. 2.2 ml dH2O was added to prepare a 0.6 mg/ml solution for Group 3.
The rats were weighed (RESULTS) and daily oral (PO, SOP 1651) dosing at 5 ml/kg was initiated as in TABLE 1.
The rats were weighed (RESULTS) and the animals were dosed as described above daily. WB301 and apremilast solutions were prepared fresh daily as described above.
The rats were weighed (RESULTS) anesthetized, a midline incision was made in the abdomen and the colon was evaluated for adhesions and stricture (RESULTS). The colon was removed and the length recorded (RESULTS). A midline incision was made the entire length of the colon, the contents removed and the colon weight and colon wall thickness recorded (RESULTS). A section of the colon was preserved in 20 volumes of 10% neutral buffered formalin (Richard-Allan Scientific, Cat. 5701, lot 378532, exp07/2020). The carcasses were disposed of.
3) involving several bowel loops=2
4) severe, proximal dilatation=3
2) linear ulceration <1 cm=1
3) two linear ulcers <1 cm=2
4) more sites of ulceration or one large ulcer=3

[1] = group mean, Group 3, 3 mg/kg PO daily, Day 7
[2] = group mean, Group 3, 3 mg/kg PO daily, Day 7, score 0-2
[3] = group mean, Group 3, 3 mg/kg PO daily, Day 7, score 0-3
[4] = individual rats, Group 3, 3 mg/kg PO daily, Day 7

For `CCOc1cc([C@@H](CS(C)(=O)=O)N2C(=O)c3cccc(NC(C)=O)c3C2=O)ccc1OC` [Apremilast, apremilast, reference compound], the macroscopic disease scores (Group 3, 3 mg/kg daily oral) was “improvement of the macroscopic disease scores”, the “study day on which rats began to recover from TNBS-induced weight loss” value (Group 3, 3 mg/kg daily oral) was 6 days and the “reduction in overall colonic score” value (Group 3, 3 mg/kg daily oral, assuming a colonic score of 10 for vehicle-treated rats) was 25%. For the same compound, the body weight loss (Group 3, 3 mg/kg daily oral, through DAY 5) was 11%, the “Average # Ulcers” value [1] was 1 and the “Average Colon Length” value [1] was 13.1 cm. The “Average Colon Weight” value [1] was 4.793 g, the “Average Colonic Score” value [1] was 7.6 and the “Average Ratio (colon length/colon weight)” value [1] was 3.470 cm/g. For the same compound, the “Average Ulcer Length” value [1] was 6.3 cm, the “Average Wall Thickness” value [1] was 3.0 mm and the “Average Adhesions” value [2] was 1.3. For the same compound, the “Average Colon Wall Thickness, score” value [2] was 1.5, the “Average Strictures” value [3] was 1.9 and the “Average Ulcers, score” value [3] was 3.0. The “Average Rat Weight” value (group mean, Group 3, 3 mg/kg PO daily, study day 0, day of TNBS, before dosing) was 214 g, the “Average Rat Weight” value (group mean, Group 3, 3 mg/kg PO daily, study day 1, before first dose) was 207 g and the “Average Rat Weight” value (group mean, Group 3, 3 mg/kg PO daily, study day 2) was 198 g. The “Average Rat Weight” value (group mean, Group 3, 3 mg/kg PO daily, study day 3) was 195 g, the “Average Rat Weight” value (group mean, Group 3, 3 mg/kg PO daily, study day 4) was 190 g and the “Average Rat Weight” value (group mean, Group 3, 3 mg/kg PO daily, study day 5) was 190 g. The “Average Rat Weight” value (group mean, Group 3, 3 mg/kg PO daily, study day 6) was 194 g, the “Average Rat Weight” value (group mean, Group 3, 3 mg/kg PO daily, study day 7) was 201 g and the “Average Rat Weight” value (group mean, Group 3, 3 mg/kg PO daily, study day −3, before TNBS and dosing) was 215 g. The “# Ulcers” value [4] was 1, the “Colon Length” value [4] was 10.0 cm and 15.5 cm and 12.0 cm (2×) and 11.5 cm and 13.0 cm and 15.0 cm and 16.0 cm and the “Colon Weight” value [4] was 3.608 g and 7.577 g and 2.860 g and 3.000 g and 4.462 g and 9.199 g and 6.085 g and 1.550 g. For the same compound, the “Ratio (colon length/colon weight)” value [4] was 2.772 cm/g and 2.046 cm/g and 4.196 cm/g and 3.833 cm/g and 2.913 cm/g and 1.631 cm/g and 2.629 cm/g and 7.742 cm/g, the “Ulcer Length” value [4] was 6.5 cm (2×) and 5.5 cm and 6.0 cm and 6.4 cm and 8.0 cm and 7.5 cm and 4.0 cm and the “Wall Thickness” value [4] was 2.5 mm (3×) and 3.5 mm (2×) and 3.7 mm and 4.0 mm and 1.5 mm. The “Colon Wall Thickness, score” value (individual rats, Group 3, 3 mg/kg PO daily, Day 7, less than 1 mm=0, 1-3 mm=1, >3 mm=2) was 1 (4×) and 2 (4×), the “Ulcers, score” value (individual rats, Group 3, 3 mg/kg PO daily, Day 7, none=0, linear ulceration <1 cm=1, two linear ulcers <1 cm=2, more sites or one large ulcer=3) was 3 and the Strictures (individual rats, Group 3, 3 mg/kg PO daily, Day 7, score none=0, mild=1, moderate=2, severe, proximal dilatation=3) was 1 (3×) and 3 (4×) and 0. The Adhesions (individual rats, Group 3, 3 mg/kg PO daily, Day 7, score none=0, minimal=1, involving several bowel loops=2) was 1 (4×) and 2 (3×) and 0, the “Colonic Score” value (individual rats, Group 3, 3 mg/kg PO daily, Day 7, sum of adhesions, strictures, ulcers and wall thickness scores) was 6 and 10 (2×) and 7 (2×) and 8 and 9 and 4 and the “Rat Weight” value (individual rats, Group 3, 3 mg/kg PO daily, study day 0, day of TNBS, before dosing) was 218 g and 213 g and 206 g and 220 g and 205 g and 217 g (2×) and 214 g. For the same compound, the “Rat Weight” value (individual rats, Group 3, 3 mg/kg PO daily, study day 1, before first dose) was 210 g and 213 g and 198 g and 214 g (2×) and 197 g and 204 g and 206 g, the “Rat Weight” value (individual rats, Group 3, 3 mg/kg PO daily, study day 2) was 198 g and 203 g (2×) and 183 g and 187 g and 205 g and 193 g and 214 g and the “Rat Weight” value (individual rats, Group 3, 3 mg/kg PO daily, study day 3) was 190 g and 200 g and 180 g (2×) and 198 g (2×) and 187 g and 225 g. The “Rat Weight” value (individual rats, Group 3, 3 mg/kg PO daily, study day 4) was 187 g (2×) and 200 g and 170 g and 188 g and 173 g and 183 g and 234 g, the “Rat Weight” value (individual rats, Group 3, 3 mg/kg PO daily, study day 5) was 189 g and 200 g and 167 g and 182 g (2×) and 172 g and 185 g and 244 g and the “Rat Weight” value (individual rats, Group 3, 3 mg/kg PO daily, study day 6) was 212 g and 202 g and 163 g and 176 g and 172 g and 186 g and 188 g and 250 g. For the same compound, the “Rat Weight” value (individual rats, Group 3, 3 mg/kg PO daily, study day 7) was 236 g and 210 g and 178 g (2×) and 177 g and 179 g and 194 g and 256 g and the “Rat Weight” value (individual rats, Group 3, 3 mg/kg PO daily, study day −3, before TNBS and dosing) was 218 g and 212 g and 210 g and 219 g and 209 g and 220 g and 217 g and 213 g.
`Nc1ccc(O)c(C(=O)O)c1` [Example 5-ASA, 5-aminosalacyclic acid, reference compound] was tested, and the “activity in the TNBS model” value (rat TNBS model, stated without data) was “inactive”.
